These results are taken from publication PMC9858213, “What Is Authentic Maple Water? A Twelve-Month Shelf-Life Study of the Chemical Composition of Maple Water and Its Biological Activities” (Foods, 2023).

The target of this test is T1, tyrosinase.
T1 construct: gene PPO1
Kind of test: absorbance at […] nm, tyrosinase inhibition in 96-well plate. The class given is biochemical. The settings on record: L-tyrosine substrate ([…] µL of […] in […] µL), phosphate buffer pH […], room temperature, […] min.

The IC50 is the concentration that inhibits the measured activity by half. Low readings indicate greater potency in that assay, high ones weaker potency in that assay. Compound `COc1cc(C(CO)C(c2ccc(O)c(OC)c2)c2ccc(O)c(OC)c2)ccc1O` (stereo not shown) [quebecol] registered an IC50 of 1.03 µM.
